Experimental data published in patent publication US12606795B2 (Thankcome Biological Science and Technology (SuZhou) Co., …, priority 2023, dated 2026).
Values after ≈ are worked out from the molar mass of the structure shown.

Experiments:
[1] = test system: AKK PROBIO; assay: Drug sensitivity, agar dilution method (CLSI); assay type: cell-based, Akkermansia muciniphila; conditions: for MIC: Akkermansia muciniphila, read-out: Test strain AKK PROBIO MIC, agar dilution method; for Test strain AKK PROBIO Judgment result: judged by CLSI S/I/R criterion of Table 6
Description: Referring to the Clinical and Laboratory Standards Institute (CLSI) method [CLSI. Performance Standards for Antimicrobial Susceptibility Testing; 26th ed. CLSI supplement M100S.
The sensitivity of AKK PROBIO to ampicillin, ceftriaxone, cefotaxime, meropenem, tetracycline, moxifloxacin, and chloramphenicol was determined using an agar dilution method recommended by CLSI. The quality-control strain B. fragilis ATCC 25285 was determined using a micro broth dilution method recommended by CLSI.

[2] = test system: Bacteroides fragilis ATCC 25285; assay: Drug sensitivity of quality-control strain, micro broth dilution method (CLSI); assay type: cell-based; conditions: ATCC25285
Description: Bacteroides fragilis ATCC 25285 was selected as a quality-control strain. The sensitivity of […] to ampicillin, ceftriaxone, cefotaxime, meropenem, tetracycline, moxifloxacin, and chloramphenicol was determined using an agar dilution method recommended by CLSI. The quality-control strain B. fragilis ATCC 25285 was determined using a micro broth dilution method recommended by CLSI.

[3] = test system: gouty arthritis mouse model; assay: Gouty arthritis mouse model (sodium urate); assay type: in vivo, BALB/c mice; conditions: glucosamine sulfate 195 mg/kg. bw intragastric
Description: Mice were randomly divided into 5 groups: a normal group, a model group, a glucosamine sulfate (positive control) group, an Akk low-concentration experimental (Akk-L) group, and an Akk high-concentration experimental (Akk-H) group, with 10 mice in each group. The mice in the normal group and the mice in the model group were intragastrically administered with distilled water at a dosage of 0.1 mL/10 g. bw per day. The mice in the glucosamine sulfate group were intragastrically administered with glucosamine sulfate at a dosage of 195 mg/kg. bw. The mice in the Akk-L group and the mice in the Akk-H group were intragastrically administered with Akk experimental bacteria at a dosage of 10^8 CFU/kg. bw and 10^9 CFU/kg. bw, respectively, for 7 consecutive days. Then, all experimental mice were anesthetized with isoflurane, and then 50 μL of PBS solution was injected into the tibiotarsal joint (ankle joint) of the right paw of the mouse in the normal group. 50 mg of sodium urate was added to 1 mL of PBS buffer to prepare a suspension. 50 μL of suspension was injected into the tibiotarsal joints (ankle joint) of the right paws of the rest of the mice except the mice in the […] to induce gouty arthritis. After the mice woke up, they were intragastrically administrated with a corresponding sample for 7 d still at the dosage of the sample intragastrically administrated in the previous 7 days.
0.1 g of mouse ankle joint tissue was weighed and added into […] containing 0.9 mL of saline and mixing was performed. Subsequently, mixed tissue samples were centrifuged at a speed of 4000 rpm for 10 min to obtain liquid supernatant. Next, related indicators in the liquid supernatant of a tissue homogenate was determined using assay kits for MPO, SOD, GSH, and MDA.
A taken-out whole blood sample of the mouse was centrifuged at 4° C. at 4000 rpm for 10 min to obtain supernatant serum. Serum-related inflammatory indicators were determined using the ELISA kit for IL-6, IL-10, IL-1β, and TNF-α.

[4] = test system: AOM/DSS-induced colorectal carcinoma mice; assay: AOM/DSS-induced colorectal carcinoma mice; assay type: in vivo, C57BL/6 mice
Description: 6-week-old SPF male C57BL/6 mice, purchased from the Chongqing Lepitt Biotechnology Co., Ltd. The mice were raised in a standardized laboratory with room temperature of 25° C.±2° C., relative humidity of 50%±5%, and 12 h of light/12 h of darkness. […] In experiments, mice were given free feeding and water. On the first day of experimental molding, the mice in the model group, the aspirin group, and the AKKP group were injected intraperitoneally with AOM at a dosage of 10 mg/kg, and were fed with 2.5% DSS aqueous solution at weeks 2, 5, and 8. The mice in the normal group and model group were intragastrically administrated with sterile saline; the mice in the aspirin group were intragastrically administrated with an aspirin solution at 67 mg/kg, and the mice in the AKKPL group and the AKKPH group were intragastrically administrated at dosages of 1×10^8 CFU/kg and 1×10^9 CFU/kg, respectively, for 10 consecutive weeks. In the experiments, diet, activity, vigor and hair conditions, and fecal properties of the mice in each group were observed. Each mouse was weighed per week and the body weights were recorded. After the experiments, blood was collected from eyeballs and the mice were sacrificed by removing their vertebrae. The mice were dissected to take out large intestine tissue, spleen tissue, liver tissue, and the kidney tissue for later testing.
After the mice were dissected, the large intestine tissue, the spleen tissue, the liver tissue, and the kidney tissue were taken out and weighed. An organ Index was calculated using a formula, while the colorectum length of the mouse was measured and the colorectal tumorigenesis number of the mouse was recorded. Organ index=organ weight (mg)/mouse body weight (g).
After being fixed in a tissue fixative for 24 h, the rectum of the mouse was transferred into 95% ethanol for dehydration, and then the dehydrated rectum was placed in xylene to replace alcohol in the tissue to make the rectum tissue transparent. Then, the treated rectum was embedded with paraffin. The embedded rectum was sectioned by a microtome, and then a tissue section was stained with H&E and fixed, obtaining a pathologic tissue section, with a thickness of 2 to 3 μm, of the rectum of the mouse, and the pathologic tissue section was observed under the upright microscope.
Whole blood was collected from the eyeballs, and centrifuged at 4000 r/min and 4° C. for 10 min to separate supernatant serum. According to the instruction of the ELISA kit, the levels of IL-1β, IL-6, IFN-γ, iNOS and NF-κB in the serum of the mouse were determined.
About 50 mg colon tissue was taken and cleaned with saline, and the cleaned colon tissue was placed in a homogenization tube containing 6 zirconia beads, and 500 μL TRIzol™ reagent was added to extract RNA in the tissue. The purity and concentration of RNA were determined using the micro-spectrophotometer. […] Then, after cDNA was generated by reverse transcription, a reaction system containing 1 μL cDNA was prepared. Other reagents include 10 μL qPCR SYBR Green Master Mix, […] sterile distilled water, 1 μL forward primer and 1 μL reverse primer. qRT-PCR amplification reaction conditions: 95° C., 10 s, 60° C., 30 s, 40 cycles; 95° C., 15 s, 60° C., 60 s, 95° C., 15 s. Taking Eef2 as an internal reference gene, the mRNA relative expression of each target gene was calculated according to formula 2^−ΔΔCt.

[5] = qRT-PCR, aspirin 67 mg/kg or AKKPH 1×10^9 CFU/kg, vs model group, P<0.05
[6] = qRT-PCR, vs model group, P<0.05

C[C@@H](O)[C@H]1C(=O)N2C(C(=O)O)=C(S[C@@H]3CN[C@H](C(=O)N(C)C)C3)[C@H](C)[C@H]12 [Meropenem, meropenem]
MIC [1]: 0.125 µg/mL (≈ 0.326 µM) | Test strain AKK PROBIO Judgment result [1]: Sensitive | Test strain AKK PROBIO Judgment result ([1]; listed as meropenem): sensitive | MIC [2]: 0.25 µg/mL (≈ 0.652 µM)

CO/N=C(\C(=O)N[C@@H]1C(=O)N2C(C(=O)O)=C(COC(C)=O)CS[C@H]12)c1csc(N)n1 [Cefotaxime, cefotaxime]
MIC [1]: 16 µg/mL (≈ 35.1 µM) | Test strain AKK PROBIO Judgment result [1]: Sensitive | Test strain AKK PROBIO Judgment result ([1]; listed as cefotaxime): sensitive | MIC [2]: 32 µg/mL (≈ 70.3 µM)

CC1(C)S[C@@H]2[C@H](NC(=O)[C@H](N)c3ccccc3)C(=O)N2[C@H]1C(=O)O [Ampicillin, ampicillin]
MIC [1]: < 0.25 µg/mL | Test strain AKK PROBIO Judgment result [1]: Sensitive | Test strain AKK PROBIO Judgment result ([1]; listed as ampicillin): sensitive | MIC [2]: 64 µg/mL (≈ 183 µM)

N[C@H]1C(O)O[C@H](CO)[C@@H](O)[C@@H]1O.O=S(=O)(O)O (some centres unmarked) [Glucosamine sulfate, glucosamine sulfate, reference compound]
SOD in mouse ankle joint tissue ([3]; model group 1.07, normal 6.07): 2.50 ± 0.40 U/mg | MPO in mouse ankle joint tissue ([3]; model group 2.49, normal 0.38): 1.82 ± 0.17 U/g | GSH in mouse ankle joint tissue ([3]; model group 18.06, normal 47.05): 31.14 ± 1.66 mg/g | IL-1β in serum of mice ([3]; model group 24.97, normal 12.66): 21.15 ± 1.22 ng/mL | MDA in mouse ankle joint tissue ([3]; model group 26.69, normal 5.74): 20.31 ± 1.52 nmol/mg | IL-10 in serum of mice ([3]; model group 36.03, normal 27.20): 32.84 ± 1.94 ng/mL | IL-6 in serum of mice ([3]; model group 90.05, normal 52.97): 66.85 ± 4.90 ng/mL | TNF-α in serum of mice ([3]; model group 249.41, normal 117.58): 204.43 ± 15.32 ng/mL

O=C(N[C@H](CO)[C@H](O)c1ccc([N+](=O)[O-])cc1)C(Cl)Cl [Chloramphenicol, chloramphenicol]
MIC [1]: 4 µg/mL (≈ 12.4 µM) | Test strain AKK PROBIO Judgment result [1]: Sensitive | Test strain AKK PROBIO Judgment result ([1]; listed as chloramphenicol): sensitive | MIC [2]: 8 µg/mL (≈ 24.8 µM)

CO/N=C(\C(=O)N[C@@H]1C(=O)N2C(C(=O)O)=C(CSc3nc(=O)c(=O)[nH]n3C)CS[C@H]12)c1csc(N)n1 [Ceftriaxone, ceftriaxone]
MIC [1]: 8 µg/mL (≈ 14.4 µM) | Test strain AKK PROBIO Judgment result [1]: Sensitive | Test strain AKK PROBIO Judgment result ([1]; listed as ceftriaxone): sensitive | MIC [2]: 128 µg/mL (≈ 231 µM)

CC(=O)Oc1ccccc1C(=O)O [aspirin, reference compound]
body weight loss ([4]; AOM/DSS mice, intragastric 10 weeks, aspirin 67 mg/kg, AKKP 1×10^8 and 1×10^9 CFU/kg): alleviate the body weight loss in the mice to a certain extent | content of IL-6 in serum ([4]; ELISA, vs model group): reduced | content of IFN-γ in serum ([4]; ELISA, vs model group, P<0.05): reduced | content of IL-1β in serum ([4]; ELISA, vs model group, P<0.05): lower than that in the model group | content of NF-κB in serum ([4]; ELISA, vs model group, P<0.05): reduced | content of iNOS in serum ([4]; ELISA, vs model group, P<0.05): reduced | colorectum weight/length (ratio) ([4]; aspirin 67 mg/kg intragastric 10 weeks, model group 4.34±0.35, normal 2.81±0.34): 3.17±0.50 | pathological morphology of rectum tissue (H&E) ([4]; aspirin, AKKPL and AKKPH groups): no obvious erosion found in the rectal mucosa | kidney index / renal tissue ([4]; between the five groups, P>0.05): no significant difference | mRNA relative expression of IκBβ in colon tissue [4, 5]: significantly reduced | mRNA relative expression of p50 in colon tissue [4, 5]: significantly reduced | mRNA relative expression of Bid in colon tissue [4, 6]: significantly increased | mRNA relative expression of Bim in colon tissue [4, 6]: significantly increased | mRNA relative expression of caspase-9 in colon tissue [4, 6]: significantly increased | mRNA relative expression of p52 in colon tissue [4, 6]: significantly reduced | mRNA relative expression of p65 in colon tissue [4, 6]: significantly reduced | colorectal tumorigenesis number ([4]; vs model group, P<0.05): significantly smaller | liver weight (liver index) ([4]; vs model group, P<0.05): reduced | spleen weight (spleen index) ([4]; vs model group, P<0.05): reduced | colorectum length ([4]; vs model group, P<0.05, aspirin 67 mg/kg, AKKP 1×10^8 and 1×10^9 CFU/kg, 10 weeks): relatively long

CN(C)[C@@H]1C(O)=C(C(N)=O)C(=O)[C@@]2(O)C(O)=C3C(=O)c4c(O)cccc4[C@@](C)(O)[C@H]3C[C@@H]12 [Tetracy cline, tetracycline]
MIC [1]: 2 µg/mL (≈ 4.5 µM) | MIC [2]: 0.5 µg/mL (≈ 1.13 µM)
